Reference: PMC10470909, “cis-Decalin-containing tetramic acids as inhibitors of insect steroidogenic glutathione S-transferase Noppera-bo” (PLOS ONE, 2023)
“Also recorded” adds a separate entry of the source.

Test system: Aspergillus fumigatus Af293
Assay: Antimicrobial assay, A. fumigatus
Type: cell-based
Conditions: Aspergillus fumigatus, AF293, read-out: Antimicrobial activity (IC50, μM) Af

Structure (SMILES) | IC50
C/C=C/C=C/[C@H]1C(C)=C[C@H]2C[C@@H](C)CC[C@@H]2[C@@]1(C)C(=O)C1=C(O)[C@@H](CO)NC1=O [Compound 5, N-demethylphomasetin] | 9.8 µM
C/C=C/C=C/[C@@H]1C(C)=C[C@@H]2C[C@@H](C)CC[C@H]2[C@]1(C)C(=O)C1=C(O)C(CO)NC1=O (stereo partly drawn) [Compound 6] | > 70 µM
CC1=C[C@H]2C[C@@H](C)CC[C@@H]2[C@@](C)(C(=O)C2=C(O)[C@@H](CO)N(C)C2=O)[C@H]1/C=C/C=C/CO [Compound 7] | > 70 µM
CC1=C[C@@H]2C[C@@H](C)CC[C@@H]2[C@@](C)(C(=O)C2=C(O)[C@@H](CO)NC2=O)[C@@H]1/C=C/C=C/C(=O)O [Compound 8] | > 70 µM

Test system: Pyricularia oryzae kita-1
Assay: microbe, parasite or virus in culture
Type: cell-based
Conditions: Pyricularia oryzae, KITA1, read-out: Antimicrobial activity (IC50, μM) Po

Structure (SMILES) | IC50
C/C=C/C=C/[C@H]1C(C)=C[C@H]2C[C@@H](C)CC[C@@H]2[C@@]1(C)C(=O)C1=C(O)[C@@H](CO)NC1=O [Compound 5, N-demethylphomasetin] | 1.3 µM
C/C=C/C=C/[C@@H]1C(C)=C[C@@H]2C[C@@H](C)CC[C@H]2[C@]1(C)C(=O)C1=C(O)C(CO)NC1=O (stereo partly drawn) [Compound 6] | 5.5 µM
CC1=C[C@H]2C[C@@H](C)CC[C@@H]2[C@@](C)(C(=O)C2=C(O)[C@@H](CO)N(C)C2=O)[C@H]1/C=C/C=C/CO [Compound 7] | 12 µM
CC1=C[C@@H]2C[C@@H](C)CC[C@@H]2[C@@](C)(C(=O)C2=C(O)[C@@H](CO)NC2=O)[C@@H]1/C=C/C=C/C(=O)O [Compound 8] | > 70 µM

Test system: Candida albicans JCM1542
Assay: Antimicrobial assay, C. albicans
Type: cell-based
Conditions: Candida albicans, JCM1542, read-out: Antimicrobial activity (IC50, μM) Ca

Structure (SMILES) | IC50
C/C=C/C=C/[C@H]1C(C)=C[C@H]2C[C@@H](C)CC[C@@H]2[C@@]1(C)C(=O)C1=C(O)[C@@H](CO)NC1=O [Compound 5, N-demethylphomasetin] | 3.8 µM
C/C=C/C=C/[C@@H]1C(C)=C[C@@H]2C[C@@H](C)CC[C@H]2[C@]1(C)C(=O)C1=C(O)C(CO)NC1=O (stereo partly drawn) [Compound 6] | 65 µM
CC1=C[C@H]2C[C@@H](C)CC[C@@H]2[C@@](C)(C(=O)C2=C(O)[C@@H](CO)N(C)C2=O)[C@H]1/C=C/C=C/CO [Compound 7] | > 70 µM
CC1=C[C@@H]2C[C@@H](C)CC[C@@H]2[C@@](C)(C(=O)C2=C(O)[C@@H](CO)NC2=O)[C@@H]1/C=C/C=C/C(=O)O [Compound 8] | > 70 µM

Test system: Plasmodium falciparum 3D7
Assay: Antimalarial assay, P. falciparum
Type: cell-based
Conditions: Plasmodium falciparum, 3D7, read-out: Antimicrobial activity (IC50, μM) Pf

Structure (SMILES) | IC50
C/C=C/C=C/[C@H]1C(C)=C[C@H]2C[C@@H](C)CC[C@@H]2[C@@]1(C)C(=O)C1=C(O)[C@@H](CO)NC1=O [Compound 5, N-demethylphomasetin] | 4.8 µM
C/C=C/C=C/[C@@H]1C(C)=C[C@@H]2C[C@@H](C)CC[C@H]2[C@]1(C)C(=O)C1=C(O)C(CO)NC1=O (stereo partly drawn) [Compound 6] | 23 µM
CC1=C[C@H]2C[C@@H](C)CC[C@@H]2[C@@](C)(C(=O)C2=C(O)[C@@H](CO)N(C)C2=O)[C@H]1/C=C/C=C/CO [Compound 7] | 4.7 µM
CC1=C[C@@H]2C[C@@H](C)CC[C@@H]2[C@@](C)(C(=O)C2=C(O)[C@@H](CO)NC2=O)[C@@H]1/C=C/C=C/C(=O)O [Compound 8] | 26 µM

Test system: not listed separately
Assay: In vitro cytotoxicity, HeLa
Type: cell-based, human
Conditions: human, HeLa cells (human cervical epidermoid carcinoma cell line)
Description: (§1) In vitro cytotoxicity and antimicrobial assays were conducted as previously reported.

Structure (SMILES) | IC50
C/C=C/C=C/[C@H]1C(C)=C[C@H]2C[C@@H](C)CC[C@@H]2[C@@]1(C)C(=O)C1=C(O)[C@@H](CO)NC1=O [Compound 5, N-demethylphomasetin] | 40 µM
C/C=C/C=C/[C@@H]1C(C)=C[C@@H]2C[C@@H](C)CC[C@H]2[C@]1(C)C(=O)C1=C(O)C(CO)NC1=O (stereo partly drawn) [Compound 6] | > 70 µM
CC1=C[C@H]2C[C@@H](C)CC[C@@H]2[C@@](C)(C(=O)C2=C(O)[C@@H](CO)N(C)C2=O)[C@H]1/C=C/C=C/CO [Compound 7] | 28 µM
CC1=C[C@@H]2C[C@@H](C)CC[C@@H]2[C@@](C)(C(=O)C2=C(O)[C@@H](CO)NC2=O)[C@@H]1/C=C/C=C/C(=O)O [Compound 8] | > 70 µM

Test system: Escherichia coli HO141
Assay: Antimicrobial assay, E. coli
Type: cell-based
Conditions: Escherichia coli, HO141, read-out: Antimicrobial activity (IC50, μM) Ec

Structure (SMILES) | IC50
C/C=C/C=C/[C@H]1C(C)=C[C@H]2C[C@@H](C)CC[C@@H]2[C@@]1(C)C(=O)C1=C(O)[C@@H](CO)NC1=O [Compound 5, N-demethylphomasetin] | 2.5 µM
C/C=C/C=C/[C@@H]1C(C)=C[C@@H]2C[C@@H](C)CC[C@H]2[C@]1(C)C(=O)C1=C(O)C(CO)NC1=O (stereo partly drawn) [Compound 6] | > 70 µM
CC1=C[C@H]2C[C@@H](C)CC[C@@H]2[C@@](C)(C(=O)C2=C(O)[C@@H](CO)N(C)C2=O)[C@H]1/C=C/C=C/CO [Compound 7] | 21 µM
CC1=C[C@@H]2C[C@@H](C)CC[C@@H]2[C@@](C)(C(=O)C2=C(O)[C@@H](CO)NC2=O)[C@@H]1/C=C/C=C/C(=O)O [Compound 8] | 28 µM

Test system: not listed separately
Assay: In vitro cytotoxicity, src^ts-NRK
Type: cell-based, rat
Conditions: rat; src^ts-NRK cells
Description: as §1

Structure (SMILES) | IC50
C/C=C/C=C/[C@H]1C(C)=C[C@H]2C[C@@H](C)CC[C@@H]2[C@@]1(C)C(=O)C1=C(O)[C@@H](CO)NC1=O [Compound 5, N-demethylphomasetin] | 63 µM
C/C=C/C=C/[C@@H]1C(C)=C[C@@H]2C[C@@H](C)CC[C@H]2[C@]1(C)C(=O)C1=C(O)C(CO)NC1=O (stereo partly drawn) [Compound 6] | > 70 µM
CC1=C[C@@H]2C[C@@H](C)CC[C@@H]2[C@@](C)(C(=O)C2=C(O)[C@@H](CO)NC2=O)[C@@H]1/C=C/C=C/C(=O)O [Compound 8] | > 70 µM

Test system: Staphylococcus aureus 209
Assay: Antimicrobial assay, S. aureus
Type: cell-based
Conditions: Staphylococcus aureus, 209, read-out: Antimicrobial activity (IC50, μM) Sa

Structure (SMILES) | IC50
C/C=C/C=C/[C@H]1C(C)=C[C@H]2C[C@@H](C)CC[C@@H]2[C@@]1(C)C(=O)C1=C(O)[C@@H](CO)NC1=O [Compound 5, N-demethylphomasetin] | 0.2 µM
C/C=C/C=C/[C@@H]1C(C)=C[C@@H]2C[C@@H](C)CC[C@H]2[C@]1(C)C(=O)C1=C(O)C(CO)NC1=O (stereo partly drawn) [Compound 6] | 3.8 µM
CC1=C[C@H]2C[C@@H](C)CC[C@@H]2[C@@](C)(C(=O)C2=C(O)[C@@H](CO)N(C)C2=O)[C@H]1/C=C/C=C/CO [Compound 7] | 1.4 µM
CC1=C[C@@H]2C[C@@H](C)CC[C@@H]2[C@@](C)(C(=O)C2=C(O)[C@@H](CO)NC2=O)[C@@H]1/C=C/C=C/C(=O)O [Compound 8] | 63 µM

Test system: not listed separately
Assay: In vitro cytotoxicity, HL-60
Type: cell-based
Conditions: human, HL-60 cells (human promyelocytic leukemia cell line)
Description: as §1

Structure (SMILES) | IC50
C/C=C/C=C/[C@H]1C(C)=C[C@H]2C[C@@H](C)CC[C@@H]2[C@@]1(C)C(=O)C1=C(O)[C@@H](CO)NC1=O [Compound 5, N-demethylphomasetin] | 11 µM
C/C=C/C=C/[C@@H]1C(C)=C[C@@H]2C[C@@H](C)CC[C@H]2[C@]1(C)C(=O)C1=C(O)C(CO)NC1=O (stereo partly drawn) [Compound 6] | 12 µM
CC1=C[C@H]2C[C@@H](C)CC[C@@H]2[C@@](C)(C(=O)C2=C(O)[C@@H](CO)N(C)C2=O)[C@H]1/C=C/C=C/CO [Compound 7] | 22 µM
CC1=C[C@@H]2C[C@@H](C)CC[C@@H]2[C@@](C)(C(=O)C2=C(O)[C@@H](CO)NC2=O)[C@@H]1/C=C/C=C/C(=O)O [Compound 8] | > 70 µM

Test system: not listed separately
Assay: Solubility in solvents
Type: physicochemical
Conditions: hexane, CHCl3, EtOAc, acetone, MeOH, MeCN, DMSO, or H2O
Description: Its molecular formula was determined as C24H31NO6 using HRESITOFMS.

Structure (SMILES) | solubility (in words)
CC1=C[C@@H]2C[C@@H](C)CC[C@@H]2[C@@](C)(C(=O)C2=C(O)[C@@H](CO)NC2=O)[C@@H]1/C=C/C=C/C(=O)O [Compound 8] | not soluble in any solvent; also recorded: too low
